Assay results: article PMC11181328 (Journal of Medicinal Chemistry, 2024)
Like-named read-outs stand apart in the source and are kept apart here.

Legend:
male Swiss Webster mice [1] = assay: Warm-water tail immersion assay, agonism (single dose screen and potency); type: in vivo, mouse; conditions: for ED50: Mus musculus, sc, read-out: potency ED50 [95% CI] mg/kg, 20 min prior to tail withdrawal latency measurement, male Swiss Webster mice; for ED50 / ED75: s.c.; for ED75: warm-water tail immersion; for percent MPE: single dose 10 mg/kg s.c., withdrawal latency 20 min after administration
KOR [2] = target: T1, KOR (Mus musculus, UniProt P33534); assay: [35S]-GTPγS functional assay, KOR; type: biochemical; conditions: for EC50: mKOR-CHO membranes; for Emax: percent of U50,488 full agonist control
T1 construct: expressed in transfected cells; membrane homogenate

in vitro [3] = conditions: Sprague-Dawley, rat, s9
DOR [4] = target: T2, DOR (Homo sapiens, UniProt P41143); assay: [35S]-GTPγS functional assay, DOR; type: biochemical; conditions: for EC50: hDOR-CHO membranes; for Emax: percent of SNC80 full agonist control
T2 construct: expressed in transfected cells; membrane homogenate

[5] = test system: male and female Sprague–Dawley rats; conditions: intravenous, FR5 schedule of reinforcement, 2 h sessions
KOR [6] = target: T1, KOR; assay: Competitive radioligand binding assay, KOR; conditions: for radioligand binding affinity (Ki, nM) KOR: [3H]diprenorphine, mKOR-CHO membranes; for selectivity ratio δ/κ / selectivity ratio μ/κ: ratio of Ki values
male Swiss Webster mice [7] = assay: Warm-water tail immersion assay, receptor selectivity study; type: in vivo, mouse; conditions: for antagonism of antinociceptive effects by nor-BNI (KOR antagonist) pretreatment: 10 mg/kg nor-BNI s.c. 24 h prior to 0.1 mg/kg test compound s.c. (23 also 0.05 mg/kg); for antagonism of antinociceptive effects by β-FNA (MOR antagonist) pretreatment: 10 mg/kg β-FNA s.c. 24 h prior to 0.1 mg/kg test compound s.c.; for antagonism of antinociceptive effects by NTI (DOR antagonist) pretreatment: 15 mg/kg NTI s.c. 30 min prior to 0.1 mg/kg test compound s.c. (23 also 0.05 mg/kg); for antagonism of antinociceptive effects by NTI and nor-BNI pretreatment together: nor-BNI 10 mg/kg + NTI 15 mg/kg s.c. prior to test compound
male Swiss Webster mice [8] = assay: Warm-water tail immersion assay, time course study; type: in vivo, mouse; conditions: for onset of antinociceptive effects: s.c.
DOR [9] = target: T2, DOR; assay: Competitive radioligand binding assay, DOR
in vitro [10] = conditions: human, s9
[11] = Drug distribution study (brain and plasma, LC-MS/MS); type: in vivo, mouse; conditions: 0.1 mg/kg s.c.; for Kp at 5 min / Kp at 10 min / Kp at 0.5 h / Kp at 1 h: Swiss Webster, mouse, sc, read-out: B/P (brain-to-plasma concentration ratio); for Kp at 0.5 h: 30 min; for Kp at 1 h: 60 min
Procedure: To examine the potential for these compounds to exert their effects on the central nervous system, a drug distribution study monitoring blood–brain barrier penetration was used. […] Plasma and brain homogenate were then analyzed via liquid chromatography with tandem mass spectrometry (LC-MS/MS) to allow calculation of brain-to-plasma ratios.[78]
The test compound was administered s.c., and a group of Swiss Webster mice was euthanized by decapitation at each time point (5, 10, 30, 60 min post injection) allowing whole brain and blood samples to be harvested. Brain samples were washed with saline to ensure removal of any blood on the isolated brain and were then immersed in 300 μL saline. Blood samples were centrifuged for 10 min (15,000g; 4 °C) to collect plasma. Brain and plasma samples were stored at −80 °C until further analysis.
Identification and quantification of test compound in mouse brain and plasma were performed using a modification of a previously described method with an internal standard of naloxone-d5.[126] Compounds were extracted from both blood and brain by a liquid/liquid extraction. Briefly, brain tissue samples were homogenized 1-part tissue to 3-parts water. Seven-point calibration curves (10–1000 ng/mL or ng/g) in plasma, drug free control, a negative control without internal standard in plasma and brain, and quality control specimens in plasma and brain (30, 300, and 750 ng/mL or ng/g) were prepared and analyzed with each batch of samples. […], was added at 10 ng/mL concentration to aliquots of either 100 μL for blood or 400 μL for brain homogenate to each calibrator, control, or specimen except the negative control. To these samples, 0.5 mL of saturated carbonate/bicarbonate buffer (1:1, pH 9.5) and 2.0 mL of chloroform/2-propanol (8:2) were added. The samples were then mixed and centrifuged. The top, aqueous layer was aspirated, and the organic layer was transferred to a clean test tube and evaporated to dryness under nitrogen. The samples were then reconstituted in 80:[…] and transferred to autosampler vials for analysis. The chromatographic separation of test compounds and naloxone-d5 was accomplished using a Shimadzu Nexera X2 liquid chromatography system and a Zorbax XDB-C18 4.6 × 75 mm, 3.5 μm column (Agilent Technologies, Santa Clara, CA). The mobile phases consisted of (A) water with 1 g/L ammonium formate and 0.1% formic acid, and (B) methanol. The flow rate was set to 1 mL/min. The mobile phase started with 20% B and was increased to 80% B at 1.0 min and held constant for 1.5 min before returning to 20% B. The system detector was a Sciex 6500 QTRAP system with an IonDrive Turbo V source for TurboIonSpray (Sciex, Ontario, Canada) that had the curtain gas flow rate set at 30 mL/min and the ion source gases 1 and 2 at 60 mL/min. The source temperature was set at 650 °C with an ionspray voltage was 5500 V. The declustering potential was 58 eV.
The primary dependent measures are (1) the plasma concentration of the test compound (μg/mL), (2) the brain concentration of the test compound (μg/g), and (3) the brain-to-plasma concentration ratio calculated as [brain]/[plasma]. Concentrations were determined by a linear regression plot based on peak ratios of the calibrators. Data are shown as mean ± SEM. Data were compared using one-way ANOVA as appropriate and a significant ANOVA was followed by a Dunnet’s post hoc test as appropriate. Statistical significance was defined as p < 0.05.

MOR = MOR (Mus musculus, UniProt P42866); assay: Competitive radioligand binding assay, MOR; design: expressed in transfected cells; membrane homogenate; conditions: for radioligand binding affinity (Ki, nM) MOR: [3H]naloxone, mMOR-CHO membranes
[12] = warm water tail immersion studies (Figure 3)

Compound	ED50 (male Swiss Webster mice [1]) [mg/kg]	ED75 (male Swiss Webster mice [1]) [mg/kg]	percent MPE (male Swiss Webster mice [1]) [%]	EC50 (KOR [2]) [pM]	Emax (KOR [2]) [%]	EC50 (DOR [4]) [pM]	Emax (DOR [4]) [%]	reinforcing effect (number of infusions earned versus saline) [5]	Ki (KOR [6]) [pM]	radioligand binding affinity (Ki, nM) KOR (KOR [6])	selectivity ratio δ/κ (KOR [6])	selectivity ratio μ/κ (KOR [6])	antagonism of antinociceptive effects by nor-BNI (KOR antagonist) pretreatment (male Swiss Webster mice [7])	antagonism of antinociceptive effects by β-FNA (MOR antagonist) pretreatment (male Swiss Webster mice [7])	antagonism of antinociceptive effects by NTI (DOR antagonist) pretreatment (male Swiss Webster mice [7])	antagonism of antinociceptive effects by NTI and nor-BNI pretreatment together (male Swiss Webster mice [7])	antinociceptive effects significant until (time postinjection) (male Swiss Webster mice [8]; 0.1 mg/kg s.c.) [h]	onset of antinociceptive effects (male Swiss Webster mice [8])	duration of action (male Swiss Webster mice [8]; [12]) [h]	Ki (DOR [9]) [pM]	other results
CN(C(=O)/C=C/c1ccco1)[C@H]1CC[C@@]2(O)[C@H]3Cc4ccc(O)c5c4[C@@]2(CCN3CC2CC2)[C@H]1O5.Cl [Compound 21, 17-Cyclopropylmethyl-3,14β-dihydroxy-4,5α-epoxy-6α-[(2E)-3′-(furan-2″-yl)-N-methylprop-2-enamido]morphinan Hydrochloride]	0.051	0.1	≥ 80	40	107 ± 2.6	1280 ± 280	> 80	no dose maintained a significant number of infusions earned above saline	140 ± 20	subnanomolar	7	1	antagonized	not antagonized by β-FNA	antagonized	seemed to compound the decrease	3	approximately 30 min	> 3	930 ± 210	half-life at 1 h, 1 µM (in vitro [3]): 1.16 h; microsomal CLint at 1 h, 1 µM (in vitro [3]): 10.1 µL/min/mg; Selectivity Ratio MOR/KOR (KOR [6]; supplement csv): 1.43; duration of action (male Swiss Webster mice [8]; 0.1 mg/kg s.c.): 3 h; radioligand binding affinity (Ki, nM) DOR (DOR [9]; [3H]diprenorphine, hDOR-CHO membranes): subnanomolar; half-life (in vitro [10]): > 2 h; microsomal CLint (in vitro [10]): < 5.8 µL/min/mg; time point of highest plasma concentration [11]: 5 min; Kp at 5 min ([11]; brain and plasma): 0.027; Kp at 10 min ([11]; brain and plasma): 0.186; Kp at 0.5 h ([11]; brain and plasma): 0.633; Kp at 1 h ([11]; brain and plasma): 0.938; Ki (MOR): 200 ± 20 pM; radioligand binding affinity (Ki, nM) MOR (MOR): subnanomolar
CN(C(=O)/C=C/c1ccco1)[C@@H]1CC[C@@]2(O)[C@H]3Cc4ccc(O)c5c4[C@@]2(CCN3CC2CC2)[C@H]1O5.Cl [Compound 23, 17-Cyclopropylmethyl-3,14β-dihydroxy-4,5α-epoxy-6β-[(2E)-3′-(furan-2″-yl)-N-methylprop-2-enamido]morphinan Hydrochloride]	0.01	0.05	≥ 80	140 ± 20	106.5 ± 0.7	16400 ± 3250	> 80	no dose maintained a significant number of infusions earned above saline	220 ± 30	subnanomolar	36	4	slight, nonsignificant decrease	not antagonized by β-FNA	antagonized by NTI	enhanced antagonism	6	approximately 30 min	> 3	7930 ± 1020	half-life (in vitro [3]): > 2 h; microsomal CLint (in vitro [3]): < 5.8 µL/min/mg; antinociceptive effects significant until (time postinjection) (male Swiss Webster mice [8]; 0.05 mg/kg s.c.): 3 h; duration of action (male Swiss Webster mice [8]; 0.5 mg/kg s.c.): 3 h; half-life (in vitro [10]): > 2 h; microsomal CLint (in vitro [10]): < 5.8 µL/min/mg; time point of highest plasma concentration [11]: 5 min; Kp at 5 min ([11]; brain): 0.05; Kp at 10 min ([11]; brain): 0.762; Kp at 0.5 h ([11]; brain): 0.645; Kp at 1 h ([11]; brain): 1.45; Ki (MOR): 780 ± 50 pM; radioligand binding affinity (Ki, nM) MOR (MOR): subnanomolar
